Measurements published in patent publication US20240091359A1, “NOVEL ESR1 DERIVED PEPTIDES AND USES THEREOF FOR NEOANTIGEN THERAPY” (H. LEE MOFFITT CANCER CENTER AND RESEARCH INSTITUTE, INC., priority 2021, published 2024).

Test system: CD4+ Th1 cells
Assay: ER peptide library screening: IFN-γ ELISA of supernatants from iDC-CD4+ Th1 co-culture after priming with peptide-pulsed DC1
Format: cell-based, human
Details: for native ER peptide screening result (immunogenic epitope / candidate sequence): cumulative responses from donors tested, native ER library of 117 peptides (FIG. 7); for donors with significant increase in IFN-γ production / immunogenicity (IFN-γ production): four healthy normal donor samples; for immunogenicity (IFN-γ production): mutated peptides and native ER peptides side by side (FIG. 9-13, 20); for increase in IFN-γ production: native ER individual peptide screening, second sample (FIG. 6C, 6D)
From the text: 176. We then take this peptide library and proceed with the screening process. Briefly, human autologous monocyte fractions from healthy donors and breast cancer patients are pulsed with class II peptides and are rapidly matured to a type-1 polarized dendritic cell (DC1) through the sequential addition of rhGM-CSF, rhIL-4, rhIFN-γ and LPS. Mature-peptide pulsed DC1's are then put in co-culture with autologous naïve T-cells, where these T-cells are presented with peptides via MHC-II molecules and are polarized to a type-1 effector CD4+ cell through DC1 secretion of IL-12. Additionally, IL-2 is added to the coculture to induce the rapid expansion of CD4+ Th1 cells, after 8-10 days of coculture, the now primed CD4+ Th1 cells are re-stimulated with immature dendritic cells presenting the matching class II peptide or an irrelevant class II negative control. Supernatants from the iDC-CD4+ Th1 co-culture are then screened through IFN-γ ELISA to measure Th1-response. An antigen specific response is considered to be significant as approximately a 2-fold increase in IFN-γ production (pg/mL) compared to the control. The final in vitro screening step is then to do a reverse sensitization. Where the primed CD4 T cells are re-stimulated with immature dendritic cells pulsed with the full tumor antigen in question, or the full protein. This step is important to determine if the identified immunogenic epitope can be recognized by T-cells primed to only a small amino acid sequence apart of the much larger protein.
178. The screening process (FIG. 3) of 10-5-1 is repeated on different samples as well to confirm commonalities in increased responses and reproducibility, ensuring that a response was not donor specific to keep track of common increased responses across donors and ultimately identify those reproducibly immunogenic peptides. The screening procedure follows the same experimental steps as mentioned before, and flows through a successive screening strategy, examining pools of 10 peptides, followed by pools of 5-peptides and eventually as individual peptides. This process allows for the rapid identification of the areas in the full protein sequence that may contain immunogenic peptides, rather than screening all peptides individually.
185. From the 11 noted point mutations, we cross matched their locations within the class II sequences of the ER peptide library. From this, each point mutation was represented in three peptide sequences due to the 10-amino acid overlap between adjacent sequences within the library. This overlap helps to account for binding affinity within the MHC II open binding groove (Table 3) 186. From the 11 mutations, a peptide library of 33 peptides (three sequences per mutation) was created (Table 3). As a comparison, we also screened the corresponding native or un-mutated ER sequences side-by-side to see if the mutation induced an increase in Th1 response compared to the native sequence.

In the case of “AKAGLTLQQQHQRLA [P99, native ER library peptide]”, the “native ER peptide screening result (immunogenic epitope / candidate sequence)” value is reported as “immunogenic” and the “native ER peptide screening result (immunogenic epitope / candidate sequence)” value (listed as 99) is reported as “candidate sequences”.
“FLSSTLKSLEEKDHI [P93, native ER library peptide]” was tested, and the “donors with significant increase in IFN-γ production” value was “two of four donors”.
For “GFVDLTLHDQVHLLE [P74, native ER library peptide]”, the “immunogenicity (IFN-γ production)” value was “not immunogenic”.
“HMSNKGMEHLYSMKC [P104, native ER library peptide]” was tested, and the “native ER peptide screening result (immunogenic epitope / candidate sequence)” value was “immunogenic” and the “native ER peptide screening result (immunogenic epitope / candidate sequence)” value (listed as 104) was “candidate sequences”.
“IILLNSGVYTFLSST [P91, native ER library peptide]” was tested, and the “donors with significant increase in IFN-γ production” value was “two of four donors”.
“KNVVPLYDLLLEMLD [P107, native ER library peptide]” was tested, and the “immunogenicity (IFN-γ production)” value was “not immunogenic”.
For “LSHIRHMSNKGMEHL [P103, native ER library peptide]”, the “native ER peptide screening result (immunogenic epitope / candidate sequence)” value was “immunogenic”, the “native ER peptide screening result (immunogenic epitope / candidate sequence)” value (listed as 103) was “candidate sequences” and the “increase in IFN-γ production” value was “almost identical response to 104”.
With “LYDLLLEMLDAHRLH [P108, native ER library peptide]” the “immunogenicity (IFN-γ production)” value was “not immunogenic”.
With “QQVPYYLENEPSGYT [P26, native ER library peptide]” the “native ER peptide screening result (immunogenic epitope / candidate sequence)” value was “immunogenic” and the “native ER peptide screening result (immunogenic epitope / candidate sequence)” value (listed as 26) was “candidate sequences”.
“TLHDQVHLLECAWLE [P75, native ER library peptide]” was tested, and the “immunogenicity (IFN-γ production)” value was “not immunogenic”.
With “YLENEPSGYTVREAG [P27, native ER library peptide]” the “native ER peptide screening result (immunogenic epitope / candidate sequence)” value was “immunogenic”, the “native ER peptide screening result (immunogenic epitope / candidate sequence)” value (listed as 27) was “candidate sequences” and the “increase in IFN-γ production” value was “approximately 1.4 fold”.
In the case of “YSMKCKNVVPLYDLL [P106, native ER library peptide]”, the “immunogenicity (IFN-γ production)” value is reported as “not immunogenic”.
